Key:
Format in all cases: in vivo
Abutilon theophrasti = test: Pre-emergence herbicidal action against ABUTH; conditions: visual score after 3 weeks vs untreated controls
Summary of the method: (§1)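 Sandy loam pots, seeds covered with soil, then surface-treated with WP or EC formulations at 600–800 l/ha water plus 0.2% wetting agent. Greenhouse, 3 weeks. Percent damage vs untreated controls.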

Alopecurus myosuroides [1] = test: Pre-emergence herbicidal action against ALOMY; conditions: 80 g/ha; visual score after 3 weeks vs untreated controls
Summary of the method: as §1

Amaranthus retroflexus [2] = test: Pre-emergence herbicidal action against AMARE; conditions: visual score after 3 weeks vs untreated controls
Summary of the method: as §1

Echinochloa crus-galli [3] = test: Pre-emergence herbicidal action against ECHCG; conditions: 80 g/ha; visual score after 3 weeks vs untreated controls
Summary of the method: as §1

Matricaria inodora [4] = test: Pre-emergence herbicidal action against MATIN; conditions: visual score after 3 weeks vs untreated controls
Summary of the method: as §1

Digitaria sanguinalis [5] = test: Pre-emergence herbicidal action against DIGSA
Summary of the method: as §1

Setaria viridis [6] = test: Pre-emergence herbicidal action against SETVI; conditions: 80 g/ha
Summary of the method: as §1

Viola tricolor [7] = test: Pre-emergence herbicidal action against VIOTR
Summary of the method: as §1

Alopecurus myosuroides [8] = test: Post-emergence herbicidal action against ALOMY
Summary of the method: (§2)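 Visual % rating (0% = as untreated, 100% = dead) ~3 wk after spraying one-leaf-stage plants grown in sandy loam; WP/EC in water at 600–800 l/ha, 0.2% wetting agent.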

Amaranthus retroflexus [9] = test: Post-emergence herbicidal action against AMARE; conditions: visual assessment about 3 weeks after treatment
Summary of the method: as §2

Avena fatua = test: Post-emergence herbicidal action against AVEFA; conditions: 20 g/ha, visual assessment about 3 weeks after treatment
Summary of the method: as §2

Echinochloa crus-galli [10] = test: Post-emergence herbicidal action against ECHCG; conditions: visual assessment about 3 weeks after treatment
Summary of the method: as §2

Pharbitis purpurea = test: Post-emergence herbicidal action against PHBPU; conditions: visual assessment about 3 weeks after treatment
Summary of the method: as §2

Digitaria sanguinalis [11] = test: Post-emergence herbicidal action against DIGSA
Method: Seeds of monocotyledonous and dicotyledonous weed and crop plants are laid out in sandy loam soil in wood-fiber pots, covered with soil and cultivated in a greenhouse under good growth conditions. 2 to 3 weeks after sowing, the test plants are treated at the one-leaf stage. The compounds of the invention, formulated in the form of wettable powders (WP) or as emulsion concentrates (EC), are then sprayed onto the green parts of the plants in the form of an aqueous suspension or emulsion at a water application rate equivalent to 600 to 800 l/ha, with addition of 0.2% wetting agent. After the test plants have been left to stand in the greenhouse under optimal growth conditions for about 3 weeks, the action of the preparations is assessed visually in comparison to untreated controls (herbicidal action in percent (%): 100% activity=the plants have died, 0% activity=like control plants). […] The tables below illustrate, in an illustrative manner, the post-emergence herbicidal action of the compounds of the invention, the herbicidal activity being stated in percent.

Setaria viridis [12] = test: Post-emergence herbicidal action against SETVI; conditions: visual assessment about 3 weeks after treatment
Summary of the method: as §2

Viola tricolor [13] = test: Post-emergence herbicidal action against VIOTR
Summary of the method: as §2

Matricaria inodora [14] = test: Post-emergence herbicidal action against MATIN; conditions: 20 g/ha, visual assessment about 3 weeks after treatment
Summary of the method: as §2

| Structure (SMILES) | Pre-emergence action against ABUTH (Abutilon theophrasti; 80 g/ha) | Pre-emergence action against ALOMY (Alopecurus myosuroides [1]) | Pre-emergence action against AMARE (Amaranthus retroflexus [2]; 20 g/ha) | Pre-emergence action against AMARE (Amaranthus retroflexus [2]; 80 g/ha) | Pre-emergence action against ECHCG (Echinochloa crus-galli [3]) | Pre-emergence action against MATIN (Matricaria inodora [4]; 80 g/ha) | Pre-emergence action against DIGSA (Digitaria sanguinalis [5]; 20 g/ha) | Pre-emergence action against DIGSA (Digitaria sanguinalis [5]; 80 g/ha) | Pre-emergence action against SETVI (Setaria viridis [6]) | Pre-emergence action against VIOTR (Viola tricolor [7]; 20 g/ha) | Pre-emergence action against VIOTR (Viola tricolor [7]; 80 g/ha) | Post-emergence action against ALOMY (Alopecurus myosuroides [8]; 20 g/ha) | Post-emergence action against AMARE in % (Amaranthus retroflexus [9]; 5 g/ha) | Post-emergence action against AMARE in % (Amaranthus retroflexus [9]; 20 g/ha) | Post-emergence action against AVEFA in % (Avena fatua) | Post-emergence action against ECHCG in % (Echinochloa crus-galli [10]; 20 g/ha) | Post-emergence action against DIGSA in % (Digitaria sanguinalis [11]; 5 g/ha) | Post-emergence action against DIGSA in % (Digitaria sanguinalis [11]; 20 g/ha) | Post-emergence action against SETVI in % (Setaria viridis [12]; 20 g/ha) | Pre-emergence action against ABUTH (Abutilon theophrasti; 20 g/ha) | also measured |
| --- | --- | --- | --- | --- | --- | --- | --- | --- | --- | --- | --- | --- | --- | --- | --- | --- | --- | --- | --- | --- | --- |
| CCN(C(=O)c1c(C(F)(F)F)ccc(C(=O)Nc2nnnn2C)c1C)C1CC1 [Example 1-32] | 100% | 90% | 90% | 100% | 90% | 100% | 90% | 100% | 100% | 80% | 100% | 90% | 90% | 100% | 80% | 100% | 90% | 90% | 90% | – | Post-emergence action against ALOMY (Alopecurus myosuroides [8]; 5 g/ha): 80%; Post-emergence action against ECHCG in % (Echinochloa crus-galli [10]; 5 g/ha): 100%; Post-emergence action against PHBPU in % (Pharbitis purpurea; 5 g/ha): 80%; Post-emergence action against PHBPU in % (Pharbitis purpurea; 20 g/ha): 90%; Post-emergence action against SETVI in % (Setaria viridis [12]; 5 g/ha): 80%; Post-emergence action against VIOTR in % (Viola tricolor [13]; 5 g/ha): 100%; Post-emergence action against VIOTR in % (Viola tricolor [13]; 20 g/ha): 100% |
| CCn1nnnc1NC(=O)c1ccc(C(F)(F)F)c(C(=O)N(C)C2CC2)c1Cl [Example 2-125] | 100% | 100% | 100% | 100% | – | 100% | – | 100% | 100% | – | 100% | 80% | 90% | 90% | 80% | – | – | 90% | – | 90% | Post-emergence action against MATIN in % (Matricaria inodora [14]): 90% |
| CCN(CC)C(=O)c1c(C(F)(F)F)ccc(C(=O)Nc2nnnn2CC)c1Cl [Example 2-135] | 100% | 90% | 100% | 100% | 100% | 100% | 80% | 90% | 100% | 100% | 100% | 90% | 80% | 90% | 80% | 80% | 80% | 90% | 80% | 90% | Pre-emergence action against MATIN (Matricaria inodora [4]; 20 g/ha): 90%; Post-emergence action against MATIN in % (Matricaria inodora [14]): 80% |

Source: patent publication US12599136B2, “Substituted isophthalic acid diamides and their use as herbicides” (Bayer Aktiengesellschaft, priority 2020, dated 2026)
